The record followed here is patent US9321790B2, “Pyrimidinone derivatives as antimalarial agents” (SANOFI, priority 2012, dated 2016).

Assay [1] has as its system Plasmodium falciparum (strain NF54). Briefly: Antimalarial activity test: growth of Plasmodium falciparum in infected human erythrocytes, 3H-hypoxanthine incorporation. The format is cell-based. The conditions noted are these: strain NF54 sensitive to chloroquine, 72 h total incubation. The method, then:
The compounds according to the invention underwent pharmacological trials to determine their inhibitory effect on the growth of Plasmodium falciparum (strain NF54 sensitive to inhibition with chloroquine) in an in vitro test using infected human erythrocytes. The growth of the parasites is measured via the incorporation of tritiated hypoxanthine compared with the incorporation in the absence of drug. The tests are performed in 96-well microplates (Falcon™ 96-well microtiter plates, ref. No. 353072) in RPMI 1640 solutions (10.44 g/l) (without hypoxanthine) with HEPES (5.94 g/l), NaHCO3 (2.1 g/l), neomycin ([…])+AlbumaxR II (5 g/l) supplemented with human erythrocytes with a final hematocrit of 1.25% and a final parasitemia of 0.15%.
The stock solution of the compounds is prepared at 10 mg/mL in DMSO. For the test, fresh solutions at the desired concentrations are prepared in RPMI medium. For the test, 100 μl of compound are mixed with 100 μl of infected blood. For the determination of the IC50 values, the compounds are tested in twofold serial dilution.
The plates are incubated at 37° C. under a humid atmosphere with 93% N2, 4% CO2 and 3% O2. After 48 hours, 50 μl of ^3H-hypoxanthine (=0.5 μCi) in RPMI medium are added to each well and incubation is continued for a further 24 hours. Next, the plates are washed with distilled water and the cell lyzate is transferred onto fiberglass filters. The filters are dried and the radioactivity is determined by liquid scintillation. The results in cpm are converted into percentages of inhibition. The inhibitory activity is given by the concentration that inhibits 50% of the growth of the parasite relative to a control without compound.

Another assay concerns the target human PI3Kα (Homo sapiens (Human), UniProt P42336). The assay is described as follows: Human PI3Kα activity test (luciferin/luciferase ATP consumption, KinaseGlo). The format is biochemical. Conditions: PI3Kα (p110α/p85α), 50 μM PIP2, 2 μM ATP, 90 minutes; read-out: IC50 Human PI3Kα.
Where [2] appears, read: Plasmodium falciparum, Erythrocyte.

Molecules are shown by their SMILES.

Chain of human PI3Kα (P42336 whole entry): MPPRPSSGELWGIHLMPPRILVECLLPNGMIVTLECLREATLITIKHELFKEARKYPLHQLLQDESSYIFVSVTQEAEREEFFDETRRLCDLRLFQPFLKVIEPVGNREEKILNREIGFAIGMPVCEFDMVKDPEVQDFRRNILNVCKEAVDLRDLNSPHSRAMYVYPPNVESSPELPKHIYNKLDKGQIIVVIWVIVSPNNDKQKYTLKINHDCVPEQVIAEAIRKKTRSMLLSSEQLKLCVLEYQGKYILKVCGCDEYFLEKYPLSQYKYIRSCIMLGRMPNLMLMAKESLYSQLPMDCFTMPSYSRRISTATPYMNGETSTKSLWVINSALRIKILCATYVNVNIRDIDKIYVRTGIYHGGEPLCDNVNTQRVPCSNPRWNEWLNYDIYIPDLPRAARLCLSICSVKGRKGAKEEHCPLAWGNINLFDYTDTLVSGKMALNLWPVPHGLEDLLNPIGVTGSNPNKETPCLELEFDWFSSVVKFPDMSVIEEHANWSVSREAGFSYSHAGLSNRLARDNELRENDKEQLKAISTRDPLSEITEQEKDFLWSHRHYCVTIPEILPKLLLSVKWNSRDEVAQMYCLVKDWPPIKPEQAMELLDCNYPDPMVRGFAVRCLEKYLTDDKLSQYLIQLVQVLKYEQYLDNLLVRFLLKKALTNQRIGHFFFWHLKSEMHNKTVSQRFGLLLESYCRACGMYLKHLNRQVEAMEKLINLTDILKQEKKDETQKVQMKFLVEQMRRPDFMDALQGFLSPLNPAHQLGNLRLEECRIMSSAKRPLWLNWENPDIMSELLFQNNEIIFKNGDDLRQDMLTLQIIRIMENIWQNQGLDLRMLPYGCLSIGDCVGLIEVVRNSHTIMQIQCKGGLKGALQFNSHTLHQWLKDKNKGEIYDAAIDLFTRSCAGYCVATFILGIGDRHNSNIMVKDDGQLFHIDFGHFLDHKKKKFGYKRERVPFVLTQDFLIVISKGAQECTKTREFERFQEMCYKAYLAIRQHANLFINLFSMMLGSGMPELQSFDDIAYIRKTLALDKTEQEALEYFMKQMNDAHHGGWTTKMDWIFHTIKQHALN
Chain of human PI3Kα (P27986 whole entry partner): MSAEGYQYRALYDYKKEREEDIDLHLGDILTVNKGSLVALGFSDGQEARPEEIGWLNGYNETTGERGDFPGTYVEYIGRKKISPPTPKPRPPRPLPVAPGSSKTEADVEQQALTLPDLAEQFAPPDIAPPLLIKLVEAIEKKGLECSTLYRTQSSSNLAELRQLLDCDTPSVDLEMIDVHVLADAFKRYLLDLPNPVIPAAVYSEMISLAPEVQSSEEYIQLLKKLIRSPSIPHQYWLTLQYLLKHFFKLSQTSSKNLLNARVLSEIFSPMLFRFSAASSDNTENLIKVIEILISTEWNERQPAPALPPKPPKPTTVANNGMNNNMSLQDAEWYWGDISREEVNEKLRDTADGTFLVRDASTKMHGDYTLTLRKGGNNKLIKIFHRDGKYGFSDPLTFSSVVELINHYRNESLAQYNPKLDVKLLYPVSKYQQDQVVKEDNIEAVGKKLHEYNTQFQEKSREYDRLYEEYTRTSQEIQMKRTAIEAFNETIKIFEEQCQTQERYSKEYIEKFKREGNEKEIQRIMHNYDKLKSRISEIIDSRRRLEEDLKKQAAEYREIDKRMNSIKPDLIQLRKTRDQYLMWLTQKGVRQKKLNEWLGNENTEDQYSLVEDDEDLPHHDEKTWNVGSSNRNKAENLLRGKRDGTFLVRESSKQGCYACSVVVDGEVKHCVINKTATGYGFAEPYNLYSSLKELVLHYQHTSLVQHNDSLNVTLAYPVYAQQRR
Method for human PI3Kα: The test uses a luciferin/luciferase system to measure the concentration of ATP and its consumption during the enzymatic reaction.
After 90 minutes, the reaction is quenched by adding 20 μl/well of KinaseGlo reagent (Promega V6713). After 10 minutes in the dark, the luminescence is read using a PHERAStar microplate reader (reading at 0.8 sec/well).

The term IC50 denotes the point on the concentration scale where inhibition reaches its midpoint. As to `Cc1cncc(C(=O)CN2c3nc(N4C[C@@H]5C[C@H]4CO5)cc(=O)n3C[C@@]2(C)C(F)(F)F)c1` [Compound 16, 2-methyl-1-[2-(5-methylpyrid-3-yl)-2-oxoethyl]-7-(1S,4S)-2-oxa-5-azabicyclo[2.2.1]hept-5-yl-2-((S)-trifluoromethyl)-2,3-dihydro-1H-imidazo[1,2-a]pyrimidin-5-one], the IC50 in assay [1] (setting [2]) was above 0.2 µM; at human PI3Kα, above 7.2 µM.

On to `Cc1ccc(C(=O)CN2c3nc(N4C[C@@H]5C[C@H]4CO5)cc(=O)n3C[C@@]2(C)C(F)(F)F)cn1` [Compound 17, 2-methyl-1-[2-(6-methylpyrid-3-yl)-2-oxoethyl]-7-(1S,4S)-2-oxa-5-azabicyclo[2.2.1]hept-5-yl-2-((S)-trifluoromethyl)-2,3-dihydro-1H-imidazo[1,2-a]pyrimidin-5-one], for which the half-inhibitory concentration (IC50) in assay [1] (setting [2]) was 0.16 µM; on human PI3Kα, at least 10 µM.

On to `Cc1ncccc1C(=O)CN1c2nc(N3C[C@@H]4C[C@H]3CO4)cc(=O)n2C[C@@]1(C)C(F)(F)F` [Compound 18, 2-Methyl-1-[2-(2-methylpyrid-3-yl)-2-oxoethyl]-7-(1S,4S)-2-oxa-5-azabicyclo[2.2.1]hept-5-yl-2-((S)-trifluoromethyl)-2,3-dihydro-1H-imidazo[1,2-a]pyrimidin-5-one], for which the IC50 in assay [1] is 0.093 µM; on human PI3Kα it was above 10 µM.

In the case of `Cc1ncccc1C(=O)CN1c2nc(N3C[C@@H]4C[C@H]3CO4)cc(=O)n2CC[C@H]1C(F)(F)F` [Compound 19, (8S)-9-[2-(2-methylpyrid-3-yl)-2-oxoethyl]-2-(1S,4S)-2-oxa-5-azabicyclo[2.2.1]hept-5-yl-8-trifluoromethyl-6,7,8,9-tetrahydropyrimido[1,2-a]pyrimidin-4-one], the IC50 was 0.024 µM in assay [1] (setting [2]) and above 10 µM at human PI3Kα.

For `Cc1ccncc1C(=O)CN1c2nc(N3C[C@@H]4C[C@H]3CO4)cc(=O)n2CC[C@H]1C(F)(F)F` [Compound 20, (8S)-9-[2-(4-methylpyrid-3-yl)-2-oxoethyl]-2-(1S,4S)-2-oxa-5-azabicyclo[2.2.1]hept-5-yl-8-trifluoromethyl-6,7,8,9-tetrahydropyrimido[1,2-a]pyrimidin-4-one], the IC50 in assay [1] (setting [2]) was 0.035 µM; at human PI3Kα, above 10 µM.

For `C[C@@]1(C(F)(F)F)Cn2c(nc(N3C[C@@H]4C[C@H]3CO4)cc2=O)N1CC(=O)c1cccnc1` [Compound 21, 2-methyl-7-(1S,4S)-2-oxa-5-azabicyclo[2.2.1]hept-5-yl-1-(2-oxo-2-pyrid-3-ylethyl)-2-((S)-trifluoromethyl)-2,3-dihydro-1H-imidazo[1,2-a]pyrimidin-5-one], the IC50 is 0.082 µM in assay [1] (setting [2]) and above 10 µM at human PI3Kα.

For `O=C(CN1c2nc(N3C[C@@H]4C[C@H]3CO4)cc(=O)n2CC[C@H]1C(F)(F)F)c1ccc(NC2CC2)nc1` [Compound 22, (8S)-9-[2-(6-Cyclopropylaminopyrid-3-yl)-2-oxoethyl]-2-(1S,4S)-2-oxa-5-azabicyclo[2.2.1]hept-5-yl-8-trifluoromethyl-6,7,8,9-tetrahydropyrimido[1,2-a]pyrimidin-4-one], the IC50 in assay [1] (setting [2]) was above 0.2 µM; at human PI3Kα it was above 10 µM.

Consider `CCNC(=O)Nc1ccc(CCN2c3nc(N4C[C@@H]5C[C@H]4CO5)cc(=O)n3CC[C@H]2C(F)(F)F)cc1` [Compound 23, 1-ethyl-3-{4-[2-((8S)-8-(1S,4S)-2-oxa-5-azabicyclo[2.2.1]hept-5-yl-6-oxo-2-trifluoromethyl-3,4-dihydro-2H,6H-pyrimido[1,2-a]pyrimidin-1-yl)ethyl]phenyl}urea], for which the IC50 came to 0.003 µM in assay [1] (setting [2]) and 1.04 µM on human PI3Kα.

On to `CCNC(=O)Nc1ccc(CCN2c3nc(N4C[C@@H]5C[C@H]4CO5)cc(=O)n3C[C@@]2(C)C(F)(F)F)cc1` [Compound 24, 1-ethyl-3-(4-{2-[(1S,4S)-2-methyl-7-2-oxa-5-azabicyclo[2.2.1]hept-5-yl-5-oxo-2-((S)-trifluoromethyl)-2,3-dihydro-5H-imidazo[1,2-a]pyrimidin-1-yl]ethyl}phenyl)urea], for which the IC50 in assay [1] (setting [2]) was determined as 0.008 µM; at human PI3Kα, 2.44 µM.

Consider `Cc1ncsc1CCN1c2nc(N3C[C@@H]4C[C@H]3CO4)cc(=O)n2CC[C@H]1C(F)(F)F` [Compound 25, (8S)-9-[2-(4-Methylthiazol-5-yl)ethyl]-2-(1S,4S)-2-oxa-5-azabicyclo[2.2.1]hept-5-yl-8-trifluoromethyl-6,7,8,9-tetrahydropyrimido[1,2-a]pyrimidin-4-one], for which the IC50 in assay [1] (setting [2]) was below 0.0034 µM; on human PI3Kα, 1 µM.

Regarding `Cc1ncsc1CCN1c2nc(N3C[C@@H]4C[C@H]3CO4)cc(=O)n2C[C@@]1(C)C(F)(F)F` [Compound 26, 2-methyl-1-[2-(4-methylthiazol-5-yl)ethyl]-7-(1S,4S)-2-oxa-5-azabicyclo[2.2.1]hept-5-yl-2-((S)-trifluoromethyl)-2,3-dihydro-1H-imidazo[1,2-a]pyrimidin-5-one], the IC50 is 0.01 µM in assay [1] (setting [2]) and 2 µM at human PI3Kα.

Turning to `Cc1n[nH]c(C)c1CCN1c2nc(N3C[C@@H]4C[C@H]3CO4)cc(=O)n2CC[C@H]1C(F)(F)F` [Compound 27, (8S)-9-[2-(3,5-Dimethyl-1H-pyrazol-4-yl)ethyl]-2-(1S,4S)-2-oxa-5-azabicyclo[2.2.1]hept-5-yl-8-trifluoromethyl-6,7,8,9-tetrahydropyrimido[1,2-a]pyrimidin-4-one], the IC50 in assay [1] (setting [2]) is below 0.0045 µM; at human PI3Kα it was 1.53 µM.

For the compound `Cc1n[nH]c(C)c1CCN1c2nc(N3C[C@@H]4C[C@H]3CO4)cc(=O)n2C[C@@]1(C)C(F)(F)F` [Compound 28, 1-[2-(3,5-Dimethyl-1H-pyrazol-4-yl)ethyl]-2-methyl-7-(1S,4S)-2-oxa-5-azabicyclo[2.2.1]hept-5-yl-2-((S)-trifluoromethyl)-2,3-dihydro-1H-imidazo[1,2-a]pyrimidin-5-one], the IC50 in assay [1] stood at 0.009 µM; on human PI3Kα it was 2.26 µM.

Take `CC(C)(C)C(=O)CN1c2nc(N3C[C@@H]4C[C@H]3CO4)cc(=O)n2CC[C@H]1C(F)(F)F` [Compound 29, (8S)-9-(3,3-dimethyl-2-oxobutyl)-2-(1S,4S)-2-oxa-5-azabicyclo[2.2.1]hept-5-yl-8-trifluoromethyl-6,7,8,9-tetrahydropyrimido[1,2-a]pyrimidin-4-one]: the IC50 in assay [1] (setting [2]) stood at 0.046 µM; at human PI3Kα, 7.93 µM.

Consider `CC(C)(C)C(=O)CN1c2nc(N3C[C@@H]4C[C@H]3CO4)cc(=O)n2C[C@@]1(C)C(F)(F)F` [Compound 30, 1-(3,3-Dimethyl-2-oxobutyl)-2-methyl-7-(1S,4S)-2-oxa-5-azabicyclo[2.2.1]hept-5-yl-2-((S)-trifluoromethyl)-2,3-dihydro-1H-imidazo[1,2-a]pyrimidin-5-one], for which the IC50 in assay [1] was above 0.24 µM; on human PI3Kα, above 10 µM.

Take `Cc1cc(C(=O)CN2c3nc(N4C[C@@H]5C[C@H]4CO5)cc(=O)n3CC[C@H]2C(F)(F)F)cnc1N` [Compound 31, (8S)-9-[2-(6-Amino-5-methylpyrid-3-yl)-2-oxoethyl]-2-(1S,4S)-2-oxa-5-azabicyclo[2.2.1]hept-5-yl-8-trifluoromethyl-6,7,8,9-tetrahydropyrimido[1,2-a]pyrimidin-4-one]: the half-maximal inhibitory concentration (IC50) in assay [1] (setting [2]) was found to be 0.075 µM; on human PI3Kα, 6.35 µM.

Turning to `C[C@@]1(C(F)(F)F)Cn2c(nc(N3C[C@@H]4C[C@H]3CO4)cc2=O)N1CCc1ccc(N)cc1` [Compound 32, 1-[2-(4-Aminophenyl)ethyl]-2-methyl-7-(1S,4S)-2-oxa-5-azabicyclo[2.2.1]hept-5-yl-2-((S)-trifluoromethyl)-2,3-dihydro-1H-imidazo[1,2-a]pyrimidin-5-one], the IC50 in assay [1] came out at 0.004 µM; on human PI3Kα, 3.7 µM.

`O=C(CN1c2nc(N3C[C@@H]4C[C@H]3CO4)cc(=O)n2CC[C@H]1C(F)(F)F)c1ccc(C(F)(F)F)nc1` [Compound 33, (8S)-2-(1S,4S)-2-Oxa-5-azabicyclo[2.2.1]hept-5-yl-9-[2-oxo-2-(6-trifluoromethylpyrid-3-yl)ethyl]-8-trifluoromethyl-6,7,8,9-tetrahydropyrimido[1,2-a]pyrimidin-4-one]: the results for the IC50 (in assay [1]; on human PI3Kα) were 4 µM and above 10 µM, respectively.

Consider `CN(CCO)c1ccc(C(=O)CN2c3nc(N4C[C@@H]5C[C@H]4CO5)cc(=O)n3CC[C@H]2C(F)(F)F)cn1` [Compound 34, (8S)-9-(2-{6-[(2-Hydroxyethyl)methylamino]pyrid-3-yl}-2-oxoethyl)-2-(1S,4S)-2-oxa-5-azabicyclo[2.2.1]hept-5-yl-8-trifluoromethyl-6,7,8,9-tetrahydropyrimido[1,2-a]pyrimidin-4-one], for which the figures for the IC50 (in assay [1] (setting [2]); on human PI3Kα) were above 0.2 µM and above 10 µM, respectively.
